Results on two molecules are retold here after ChEMBL document CHEMBL5335794, “Discovery of novel multifunctional ligands targeting GABA transporters, butyrylcholinesterase, β-secretase, and amyloid β aggregation as potential treatment of Alzheimer's disease” (Eur J Med Chem, 2023).

The nature of series [1]: Inhibition of mouse GAT3 transfected in HEK293 cells assessed as reduction in [3H]-GABA uptake. The format is cell-based.
The target of series [2] is T1, GABA transporter 4 (Mus musculus, UniProt P31650).
T1 sequence (P31650 whole entry): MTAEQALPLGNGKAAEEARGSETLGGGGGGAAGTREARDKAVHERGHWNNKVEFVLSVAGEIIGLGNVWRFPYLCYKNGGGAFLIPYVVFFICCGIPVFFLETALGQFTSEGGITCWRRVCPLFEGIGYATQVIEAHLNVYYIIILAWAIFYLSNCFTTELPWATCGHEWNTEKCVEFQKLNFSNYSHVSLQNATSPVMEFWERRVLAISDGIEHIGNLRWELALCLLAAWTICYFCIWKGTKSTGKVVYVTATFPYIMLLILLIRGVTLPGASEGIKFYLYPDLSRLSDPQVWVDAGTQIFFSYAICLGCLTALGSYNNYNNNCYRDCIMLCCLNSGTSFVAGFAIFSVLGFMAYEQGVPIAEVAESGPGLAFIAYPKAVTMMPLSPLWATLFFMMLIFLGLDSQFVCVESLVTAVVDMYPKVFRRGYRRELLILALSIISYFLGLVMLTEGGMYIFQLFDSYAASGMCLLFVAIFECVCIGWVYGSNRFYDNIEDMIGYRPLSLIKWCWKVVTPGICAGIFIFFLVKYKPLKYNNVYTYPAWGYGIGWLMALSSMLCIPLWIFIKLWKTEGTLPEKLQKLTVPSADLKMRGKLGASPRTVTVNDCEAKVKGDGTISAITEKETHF
Nature of the series: Inhibition of mouse GAT4 transfected in HEK293 cells assessed as reduction in [3H]-GABA uptake. The format is cell-based.

For series [3], the target named is T2, Sodium- and chloride-dependent GABA transporter 1 (Mus musculus, UniProt P31648). Put plainly: Inhibition of mouse GAT1 expressed in HEK293 cells assessed as reduction in [3H]-GABA uptake. The series is classed as cell-based.
For series [4], the target named is T3, GABA transporter 2 (Mus musculus, UniProt P31651).
T3 sequence (P31651 whole entry): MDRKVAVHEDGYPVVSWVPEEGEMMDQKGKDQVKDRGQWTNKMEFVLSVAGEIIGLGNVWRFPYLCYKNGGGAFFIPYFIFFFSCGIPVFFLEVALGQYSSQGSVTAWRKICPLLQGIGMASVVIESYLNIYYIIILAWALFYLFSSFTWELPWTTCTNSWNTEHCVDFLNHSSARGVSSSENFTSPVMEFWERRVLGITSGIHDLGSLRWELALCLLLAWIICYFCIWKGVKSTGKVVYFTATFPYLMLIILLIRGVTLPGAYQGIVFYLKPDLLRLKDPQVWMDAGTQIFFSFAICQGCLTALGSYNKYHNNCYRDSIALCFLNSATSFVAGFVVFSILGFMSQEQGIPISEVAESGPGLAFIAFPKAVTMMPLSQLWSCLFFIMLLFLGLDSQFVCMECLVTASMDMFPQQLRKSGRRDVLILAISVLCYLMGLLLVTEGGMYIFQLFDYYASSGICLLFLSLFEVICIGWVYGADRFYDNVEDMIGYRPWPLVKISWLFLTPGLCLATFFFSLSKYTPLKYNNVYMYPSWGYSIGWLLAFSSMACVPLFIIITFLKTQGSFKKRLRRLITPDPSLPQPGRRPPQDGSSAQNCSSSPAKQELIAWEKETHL
Put plainly: Inhibition of mouse GAT2 transfected in HEK293 cells assessed as reduction in [3H]-GABA uptake. The format is cell-based.

For series [5], the target named is Amyloid-beta precursor protein (Homo sapiens) (UniProt P05067). Nature of the series: Inhibition of soluble amyloid beta40 (unknown origin) aggregation assessed as inhibition of fibril elongation by measuring fold reduction in elongation ratio at 10 uM measured after 24 hrs by ThT fluorescence based assay.
Chain of Amyloid-beta precursor protein (Homo sapiens) (P05067 whole entry): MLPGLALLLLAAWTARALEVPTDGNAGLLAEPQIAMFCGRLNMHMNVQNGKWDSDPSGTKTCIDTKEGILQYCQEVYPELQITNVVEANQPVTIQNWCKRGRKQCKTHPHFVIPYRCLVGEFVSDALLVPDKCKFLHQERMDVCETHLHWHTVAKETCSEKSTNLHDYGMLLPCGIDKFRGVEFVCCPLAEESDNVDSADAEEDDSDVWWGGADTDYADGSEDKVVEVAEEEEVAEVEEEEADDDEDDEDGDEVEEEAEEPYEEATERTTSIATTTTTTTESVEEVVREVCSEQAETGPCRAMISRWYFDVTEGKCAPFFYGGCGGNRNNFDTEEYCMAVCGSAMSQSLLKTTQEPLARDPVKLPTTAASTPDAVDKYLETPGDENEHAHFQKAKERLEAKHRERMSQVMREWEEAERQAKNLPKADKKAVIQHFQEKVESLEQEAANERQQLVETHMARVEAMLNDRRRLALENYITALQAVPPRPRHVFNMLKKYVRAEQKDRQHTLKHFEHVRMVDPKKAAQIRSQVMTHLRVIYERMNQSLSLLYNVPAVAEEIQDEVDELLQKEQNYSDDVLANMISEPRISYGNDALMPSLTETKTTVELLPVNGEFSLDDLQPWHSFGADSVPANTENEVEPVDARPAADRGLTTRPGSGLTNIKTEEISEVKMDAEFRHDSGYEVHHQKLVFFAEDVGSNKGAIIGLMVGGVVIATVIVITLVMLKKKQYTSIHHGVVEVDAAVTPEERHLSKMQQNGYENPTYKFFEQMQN
The target of series [6] is Cholinesterase (Equus caballus, UniProt P81908).
Chain of Cholinesterase (P81908 whole entry): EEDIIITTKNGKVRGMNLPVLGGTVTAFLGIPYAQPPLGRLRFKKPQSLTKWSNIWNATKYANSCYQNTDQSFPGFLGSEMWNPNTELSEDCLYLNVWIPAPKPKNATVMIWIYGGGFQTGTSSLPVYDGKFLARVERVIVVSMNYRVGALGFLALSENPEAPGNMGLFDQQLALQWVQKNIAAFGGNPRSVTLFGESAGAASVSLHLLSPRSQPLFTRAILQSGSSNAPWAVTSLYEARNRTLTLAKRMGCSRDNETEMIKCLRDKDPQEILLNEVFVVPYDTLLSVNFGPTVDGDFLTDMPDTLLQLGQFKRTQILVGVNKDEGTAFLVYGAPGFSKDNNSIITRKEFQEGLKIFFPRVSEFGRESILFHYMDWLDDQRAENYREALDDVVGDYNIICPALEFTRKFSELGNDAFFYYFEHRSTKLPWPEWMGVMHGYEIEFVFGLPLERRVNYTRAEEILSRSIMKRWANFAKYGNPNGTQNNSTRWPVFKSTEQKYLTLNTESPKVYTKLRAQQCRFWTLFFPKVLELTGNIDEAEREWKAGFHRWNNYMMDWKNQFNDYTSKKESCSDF
Description: Inhibition of equine serum BuChE using butyrylthiocholine iodide as substrate preincubated for 5 mins followed by substrate addition and measured after 5 mins by DTNB reagent based Ellman's method
For series [7], the system named is Mus musculus. Put plainly: Cognitive enhancing activity in Albino Swiss (CD-1) mouse model of scopolamine induced cognitive dysfunction and amnesia assessed as prolongation of step-through latency in retention trail at 30 mg/kg, ip pretreated for 30 mins followed by scopolamine administration and measured after 30 mins by passive avoidance test. The series is classed as functional, organism-based. As to conditions: time 60.0 min.

Series [8] has as its target Amyloid-beta precursor protein (Homo sapiens) (UniProt P05067). Nature of the series: Inhibition of soluble amyloid beta40 (unknown origin) aggregation at 10 uM measured after 24 hrs by ThT fluorescence based assay relative to control.
The target of series [9] is Cholinesterase (Equus caballus) (UniProt P81908). Nature of the series: Mixed type inhibition of equine serum BuChE using varying concentrations of butyrylthiocholine iodide as substrate preincubated for 5 mins followed by substrate addition and measured after 5 mins by Ellman's method based Cornish-Bowden plot analysis. As to conditions: time 10.0 min.
Chain of Cholinesterase (Equus caballus) (P81908 whole entry): as above
For series [10], the target named is Amyloid-beta precursor protein (Homo sapiens) (UniProt P05067). Nature of the series: Inhibition of soluble amyloid beta40 (unknown origin) aggregation assessed as lag time of amyloid polymerization at 10 uM measured after 24 hrs by ThT fluorescence based assay (reference value: […] min).
In series [11] the test system is Mus musculus. Nature of the series: Cognitive enhancing activity in Albino Swiss (CD-1) mouse model of scopolamine induced memory deficits and amnesia assessed as increase in discrimination index at 30 mg/kg, ip pretreated for 30 mins followed by scopolamine administration and measured after 30 mins by Novel object recognition test. The format is functional, organism-based. Conditions: time 60.0 min.

The subject of series [12] is Mus musculus. Nature of the series: Cognitive enhancing activity in Albino Swiss (CD-1) mouse model of scopolamine induced cognitive dysfunction and amnesia assessed as prolongation of step-through latency in acquisition phase at 10 mg/kg, ip pretreated for 30 mins followed by scopolamine administration and measured after 30 mins by passive avoidance test. As to conditions: time 60.0 min. The format is functional, organism-based.

Series [13] deals with Acetylcholinesterase (Electrophorus electricus) (UniProt O42275). Put plainly: Inhibition of electric eel AChE using acetylthiocholine iodide as substrate at 10 uM preincubated for 5 mins followed by substrate addition and measured after 5 mins by DTNB reagent based Ellman's method relative to control. As to conditions: time 10.0 min.
Chain of Acetylcholinesterase (Electrophorus electricus) (O42275 24-633 limits assumed): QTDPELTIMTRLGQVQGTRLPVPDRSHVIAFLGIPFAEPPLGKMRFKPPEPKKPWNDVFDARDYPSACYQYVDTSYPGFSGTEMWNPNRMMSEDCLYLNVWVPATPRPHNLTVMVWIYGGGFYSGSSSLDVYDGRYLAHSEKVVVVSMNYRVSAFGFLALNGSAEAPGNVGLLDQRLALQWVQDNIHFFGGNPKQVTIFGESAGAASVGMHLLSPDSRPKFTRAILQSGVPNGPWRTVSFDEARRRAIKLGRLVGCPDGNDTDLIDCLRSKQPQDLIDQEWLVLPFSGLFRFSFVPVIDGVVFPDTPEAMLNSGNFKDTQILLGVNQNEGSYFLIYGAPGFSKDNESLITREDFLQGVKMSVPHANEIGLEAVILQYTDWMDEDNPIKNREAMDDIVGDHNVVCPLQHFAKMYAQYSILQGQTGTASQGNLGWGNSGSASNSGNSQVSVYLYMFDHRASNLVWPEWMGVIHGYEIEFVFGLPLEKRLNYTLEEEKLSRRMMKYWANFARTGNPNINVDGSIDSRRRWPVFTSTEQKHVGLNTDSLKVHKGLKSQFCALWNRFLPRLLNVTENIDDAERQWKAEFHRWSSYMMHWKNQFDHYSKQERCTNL
For series [14], the system named is HEK293. Put plainly: Cytotoxicity against HEK293 cells assessed as reduction in cell viability at 0.1 to 1 uM incubated for 72 hrs by MTS assay. Conditions: human, hek293, 72 h, dose 0.1-1 µM. The series is classed as toxicity, cell-based.
Series [15] addresses Amyloid-beta precursor protein (Homo sapiens) (UniProt P05067). Nature of the series: Inhibition of amyloid beta40 (unknown origin) aggregation at 10 uM measured every 5 mins by ThT fluorescence based assay relative to control.
The test system of series [16] is HepG2. Put plainly: Cytotoxicity against human HepG2 cells assessed as reduction in cell viability at 0.1 to 1 uM incubated for 72 hrs by MTS assay. The format is toxicity, cell-based. As to conditions: hepg2, 72 h, dose 0.1-1 µM.
Series [17] concerns the target Beta-secretase 1 (Homo sapiens, UniProt P56817).
Series [18] deals with Amyloid-beta precursor protein (Homo sapiens) (UniProt P05067). Put plainly: Inhibition of soluble amyloid beta40 (unknown origin) aggregation assessed as end time of amyloid polymerization at 10 uM measured after 24 hrs by ThT fluorescence based assay (reference value: […] min).
Series [19] shares this target. Nature of the series: Inhibition of soluble amyloid beta40 (unknown origin) aggregation assessed as elongation constant at 10 uM measured after 24 hrs by ThT fluorescence based assay (reference value: […] /M/min).
Series [20] can be described thus: Inhibition of mouse GAT3 transfected in HEK293 cells assessed as reduction in [3H]-GABA uptake preincubated for 25 mins followed by [3H]-GABA addition and measured after 4 mins by liquid scintillation counting analysis. The format is cell-based. As to conditions: HEK293; read-out: pIC50 (converted).
Series [21] has as its target Sodium- and chloride-dependent GABA transporter 1 (Mus musculus) (UniProt P31648). Nature of the series: Inhibition of NO 711 marker binding to mouse GAT1 assessed as residual activity at 100 uM by LC-ESI-MS/MS based competitive MS binding assay relative to control.
The test system of series [22] is Mus musculus. Put plainly: Cognitive enhancing activity in Albino Swiss (CD-1) mouse model of scopolamine induced cognitive dysfunction and amnesia assessed as prolongation of step-through latency in retention trail at 10 mg/kg, ip pretreated for 30 mins followed by scopolamine administration and measured after 30 mins by passive avoidance test. The format is functional, organism-based. As to conditions: time 60.0 min.

For series [23], the target named is T3, GABA transporter 2. Nature of the series: Inhibition of mouse GAT2 transfected in HEK293 cells assessed as reduction in [3H]-GABA uptake preincubated for 25 mins followed by [3H]-GABA addition and measured after 10 mins by liquid scintillation counting analysis. The series is classed as cell-based. As to conditions: read-out: pIC50 (converted).
Series [24] has as its target T2, Sodium- and chloride-dependent GABA transporter 1. Nature of the series: Inhibition of mouse GAT1 transfected in HEK293 cells assessed as reduction in [3H]-GABA uptake preincubated for 25 mins followed by [3H]-GABA addition and measured after 4 mins by liquid scintillation counting analysis. Conditions: read-out: pIC50 (converted). The series is classed as cell-based.

The target of series [25] is Amyloid-beta precursor protein (Homo sapiens) (UniProt P05067). Nature of the series: Inhibition of soluble amyloid beta40 (unknown origin) aggregation assessed as nucleation constant at 10 uM measured after 24 hrs by ThT fluorescence based assay (reference value: […] 10^-4/min).
For series [26], the target named is Cholinesterase (Equus caballus) (UniProt P81908). Nature of the series: Mixed type inhibition of equine serum BuChE using varying concentrations of butyrylthiocholine iodide as substrate preincubated for 5 mins followed by substrate addition and measured after 5 mins by Ellman's method based Lineweaver-Burk plot analysis. As to conditions: time 10.0 min.
For series [27], the target named is Amyloid-beta precursor protein (Homo sapiens) (UniProt P05067). Put plainly: Inhibition of amyloid beta42 (unknown origin) aggregation expressed in Escherichia coli BL21 (DE3) at 10 uM measured every 5 mins by ThT fluorescence based assay relative to control.
The target is the same in series [28]. Put plainly: Inhibition of soluble amyloid beta40 (unknown origin) aggregation assessed as time of half-aggregation at 10 uM measured after 24 hrs by ThT fluorescence based assay (reference value: […] min).
In series [29] the target is T1, GABA transporter 4. Put plainly: Inhibition of mouse GAT4 transfected in HEK293 cells assessed as reduction in [3H]-GABA uptake preincubated for 25 mins followed by [3H]-GABA addition and measured after 4 mins by liquid scintillation counting analysis. The series is classed as cell-based. Conditions: read-out: pIC50 (converted).

Calls of active or inactive are those of the source. The calls are words filed in the database; no cut-off is given here.

Chain of Beta-secretase 1 (P56817 whole entry): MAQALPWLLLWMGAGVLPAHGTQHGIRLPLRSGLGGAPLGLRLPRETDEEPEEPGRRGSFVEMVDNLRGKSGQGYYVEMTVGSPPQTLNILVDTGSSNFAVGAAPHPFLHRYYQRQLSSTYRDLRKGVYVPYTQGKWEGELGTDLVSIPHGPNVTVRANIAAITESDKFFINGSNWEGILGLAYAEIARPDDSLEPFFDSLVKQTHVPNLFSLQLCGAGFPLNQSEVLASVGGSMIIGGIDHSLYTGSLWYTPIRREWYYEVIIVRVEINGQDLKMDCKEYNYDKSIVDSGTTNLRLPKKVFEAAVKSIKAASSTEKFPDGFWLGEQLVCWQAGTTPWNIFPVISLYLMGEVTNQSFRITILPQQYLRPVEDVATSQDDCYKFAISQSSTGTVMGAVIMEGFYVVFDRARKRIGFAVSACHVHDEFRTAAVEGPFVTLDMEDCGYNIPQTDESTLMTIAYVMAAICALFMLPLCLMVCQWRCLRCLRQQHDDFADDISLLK

Regarding `O=C(O)C1=CN(CC/C=C/c2ccccc2-c2ccccc2)CCC1`, the IC50 in [1] was 324 µM; in [2], 288 µM; in [3] (read-out: IC50), 0.062 µM; in series [3] (read-out: pIC50 (converted)), 0.162 µM; in series [4], 135 µM.

Take `CN(CCOCCn1c2ccccc2c2ccccc21)C(CCN)C(=O)NCc1ccccc1` (stereo not given): the fold change (FC) in series [5] stood at 2. For the same molecule, the IC50 in series [6] was 0.173 µM; in series [17], 9.42 µM; in series [20], 15.1 µM; in series [23], 15.8 µM; in [24], 30.9 µM; in series [29] it was 25.1 µM. Also, the outcome in series [7] and in series [12] was Active. In addition, the inhibition in series [8] was 78.6%; in [13], below 10%; in series [15], 78.9%; in [27] it was 31.7%. Further, the inhibition entry in series [9] and in series [26] was “Active” in each case. In addition, the TIME amounted to 0.792 h in series [10] and 2.09 h in series [18]. Besides, the result in series [11] and in series [22] was inactive. Also, the Activity entry in [14] is “Non-Toxic”; in series [16] it was “Non-Toxic”; in series [21] it was 71%. The K in series [19] is 117 M⁻¹ s⁻¹; in series [25], 1.34 10^-4/min. The T1/2 in [28] came out at 1.44 h.
